Source: ChEMBL document CHEMBL5518240 (J Med Chem, 2024)

Tests used:
[1] = molecular target: T1, Protein cereblon/CREB-binding protein (Homo sapiens, UniProt Q92793+Q96SW2); test: PROTAC activity at CBP/CRBN in human VCaP cells assessed as protein degradation incubated for 4 hrs by Western blot analysis; format: cell-based
[2] = molecular target: T1, Protein cereblon/CREB-binding protein; test: PROTAC activity at CBP/CRBN in human VCaP cells assessed as maximal protein degradation at 1 uM incubated for 4 hrs by Western blot analysis relative to control; format: cell-based
[3] = molecular target: T2, Protein cereblon/Histone acetyltransferase p300 (Homo sapiens, UniProt Q09472+Q96SW2); test: PROTAC activity at p300/CRBN in human VCaP cells assessed as protein degradation incubated for 4 hrs by Western blot analysis; format: cell-based
Target sequence in this assay (Q09472 whole entry): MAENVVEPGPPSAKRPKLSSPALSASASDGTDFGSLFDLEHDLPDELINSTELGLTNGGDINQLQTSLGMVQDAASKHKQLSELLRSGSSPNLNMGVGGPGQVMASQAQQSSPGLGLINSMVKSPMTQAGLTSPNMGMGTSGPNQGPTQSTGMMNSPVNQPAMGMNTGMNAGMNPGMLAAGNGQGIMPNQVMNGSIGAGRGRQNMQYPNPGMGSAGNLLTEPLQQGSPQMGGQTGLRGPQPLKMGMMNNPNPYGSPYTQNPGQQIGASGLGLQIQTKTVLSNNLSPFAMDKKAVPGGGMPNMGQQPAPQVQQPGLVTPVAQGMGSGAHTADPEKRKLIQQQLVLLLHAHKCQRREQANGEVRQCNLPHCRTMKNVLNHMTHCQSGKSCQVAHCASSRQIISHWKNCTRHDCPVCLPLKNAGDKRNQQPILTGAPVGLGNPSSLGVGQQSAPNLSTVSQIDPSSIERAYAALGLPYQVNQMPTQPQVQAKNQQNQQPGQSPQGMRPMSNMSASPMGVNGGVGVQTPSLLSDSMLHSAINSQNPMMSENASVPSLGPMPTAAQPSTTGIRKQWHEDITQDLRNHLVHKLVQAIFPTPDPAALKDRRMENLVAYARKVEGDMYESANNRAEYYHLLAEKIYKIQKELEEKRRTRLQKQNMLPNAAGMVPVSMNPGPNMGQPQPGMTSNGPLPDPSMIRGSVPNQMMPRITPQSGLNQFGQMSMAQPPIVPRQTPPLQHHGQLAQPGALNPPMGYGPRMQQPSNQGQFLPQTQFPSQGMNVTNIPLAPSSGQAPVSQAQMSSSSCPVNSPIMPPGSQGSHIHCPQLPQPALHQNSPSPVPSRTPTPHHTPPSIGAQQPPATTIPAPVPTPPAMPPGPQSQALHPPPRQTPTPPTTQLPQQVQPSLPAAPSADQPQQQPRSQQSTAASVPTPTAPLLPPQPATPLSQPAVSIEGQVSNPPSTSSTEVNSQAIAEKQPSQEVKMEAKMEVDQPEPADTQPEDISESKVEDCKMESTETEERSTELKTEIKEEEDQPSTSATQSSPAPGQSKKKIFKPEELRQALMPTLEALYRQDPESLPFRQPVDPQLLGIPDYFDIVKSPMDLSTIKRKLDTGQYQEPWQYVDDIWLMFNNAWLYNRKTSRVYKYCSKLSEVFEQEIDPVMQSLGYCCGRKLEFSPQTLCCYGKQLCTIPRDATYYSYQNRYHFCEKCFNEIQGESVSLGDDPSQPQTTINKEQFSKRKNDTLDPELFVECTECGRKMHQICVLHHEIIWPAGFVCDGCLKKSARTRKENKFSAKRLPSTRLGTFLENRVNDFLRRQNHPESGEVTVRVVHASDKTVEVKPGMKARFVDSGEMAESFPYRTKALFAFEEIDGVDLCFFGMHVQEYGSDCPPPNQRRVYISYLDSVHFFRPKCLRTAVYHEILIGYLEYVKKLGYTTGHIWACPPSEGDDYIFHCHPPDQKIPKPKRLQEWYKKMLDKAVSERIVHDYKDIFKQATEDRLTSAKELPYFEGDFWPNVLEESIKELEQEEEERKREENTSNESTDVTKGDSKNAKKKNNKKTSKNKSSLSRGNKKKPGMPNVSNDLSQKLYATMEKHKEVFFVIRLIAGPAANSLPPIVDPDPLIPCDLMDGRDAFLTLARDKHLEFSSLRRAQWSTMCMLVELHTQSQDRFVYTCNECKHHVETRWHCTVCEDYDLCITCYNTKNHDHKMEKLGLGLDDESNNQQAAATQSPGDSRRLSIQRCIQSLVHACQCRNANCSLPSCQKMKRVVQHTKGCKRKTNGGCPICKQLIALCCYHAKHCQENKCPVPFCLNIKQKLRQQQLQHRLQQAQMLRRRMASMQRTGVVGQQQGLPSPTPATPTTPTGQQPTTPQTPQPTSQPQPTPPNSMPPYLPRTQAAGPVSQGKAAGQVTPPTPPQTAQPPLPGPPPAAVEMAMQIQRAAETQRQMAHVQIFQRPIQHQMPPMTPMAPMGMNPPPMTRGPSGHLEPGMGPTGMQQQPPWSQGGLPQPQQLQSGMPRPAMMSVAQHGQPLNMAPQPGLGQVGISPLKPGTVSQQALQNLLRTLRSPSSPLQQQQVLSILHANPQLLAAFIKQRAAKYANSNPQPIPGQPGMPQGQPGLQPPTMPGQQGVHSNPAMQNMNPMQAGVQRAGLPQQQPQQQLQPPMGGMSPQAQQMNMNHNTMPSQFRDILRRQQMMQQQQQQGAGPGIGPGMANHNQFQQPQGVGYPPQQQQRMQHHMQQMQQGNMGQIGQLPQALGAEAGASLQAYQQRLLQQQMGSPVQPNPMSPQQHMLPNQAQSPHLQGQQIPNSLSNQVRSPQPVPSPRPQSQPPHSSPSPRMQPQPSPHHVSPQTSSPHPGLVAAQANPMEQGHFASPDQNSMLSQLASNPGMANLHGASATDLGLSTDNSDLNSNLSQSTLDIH
Target sequence in this assay (Q96SW2 whole entry): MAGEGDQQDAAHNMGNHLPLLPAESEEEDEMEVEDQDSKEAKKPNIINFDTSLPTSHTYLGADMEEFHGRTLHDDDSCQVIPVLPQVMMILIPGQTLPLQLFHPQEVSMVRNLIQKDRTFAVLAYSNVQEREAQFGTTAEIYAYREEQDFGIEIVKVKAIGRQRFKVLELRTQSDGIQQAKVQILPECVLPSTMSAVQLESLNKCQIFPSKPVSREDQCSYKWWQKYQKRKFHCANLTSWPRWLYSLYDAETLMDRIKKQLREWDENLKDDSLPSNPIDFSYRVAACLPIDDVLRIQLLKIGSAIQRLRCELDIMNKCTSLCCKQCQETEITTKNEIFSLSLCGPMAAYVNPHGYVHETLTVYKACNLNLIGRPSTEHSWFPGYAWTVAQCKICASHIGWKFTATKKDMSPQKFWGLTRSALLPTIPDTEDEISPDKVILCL

[4] = molecular target: T2, Protein cereblon/Histone acetyltransferase p300; test: PROTAC activity at p300/CRBN in human VCaP cells assessed as maximal protein degradation at 1 uM incubated for 4 hrs by Western blot analysis relative to control; format: cell-based
[5] = Oral plasma exposure in SCID mouse at 5 mg/kg, po measured after 1 hr; format: ADME, organism-based; conditions: SCID, plasma
[6] = Oral plasma exposure in SCID mouse at 5 mg/kg, po measured after 3 hrs; format: ADME, organism-based; conditions: SCID, plasma
[7] = Oral plasma exposure in SCID mouse at 5 mg/kg, po measured after 6 hrs; format: ADME, organism-based; conditions: SCID, plasma

Row | SMILES | DC50 [1] [nM] | Emax [2] [%] | DC50 [3] [nM] | Emax [4] [%] | concentration at 1 h [5] [ng/mL] | concentration at 3 h [6] [ng/mL] | concentration at 6 h [7] [ng/mL]
1 | CC(=O)N1CCc2c(c(N3CCCc4cc(-c5cnn(C)c5)c(C(F)F)cc43)nn2C2CCN(C3CCN(c4ccc5c(c4)C(=O)N(C4CCC(=O)NC4=O)C5=O)CC3)CC2)C1 (centres undefined) | 1.1 | > 95 | 0.6 | > 95 | 122 | 122 | 82.2
2 | CC(=O)N1CCc2c(c(N3CCCc4cc(-c5cnn(C)c5)c(C(F)F)cc43)nn2C2CCN(CC3CN(c4ccc5c(c4)C(=O)N(C4CCC(=O)NC4=O)C5=O)C3)CC2)C1 (centres undefined) | 1.1 | > 95 | 0.4 | > 95 | 23.8 | 16.7 | 7.4
3 | CC(=O)N1CCc2c(c(N3CCCc4cc(-c5cnn(C)c5)c(C(F)F)cc43)nn2C2CCN(C3CC4(CCN(c5ccc6c(c5)C(=O)N(C5CCC(=O)NC5=O)C6=O)CC4)C3)CC2)C1 (centres undefined) | 1.1 | > 95 | 0.4 | > 95 | 493 | 312 | 328
4 | CC(=O)N1CCc2c(c(N3CCCc4cc(-c5cnn(C)c5)c(C(F)F)cc43)nn2[C@H]2CC[C@H](CN3CCN(c4ccc5c(c4)CN(C4CCC(=O)NC4=O)C5=O)CC3)CC2)C1 (some centres undefined) | 0.1 | > 95 | < 0.1 | > 95 |  |  | 
5 | CC(=O)N1CCc2c(c(N3CCCc4cc(-c5cnn(C)c5)c(C(F)F)cc43)nn2[C@H]2CC[C@H](CN3CCN(c4cccc5c4C(=O)N(C4CCC(=O)NC4=O)C5=O)CC3)CC2)C1 (some centres undefined) | 700 | 53 | > 1000 | 33 |  |  | 

Second part, the compound after the results:

Row | DC50 [1] [nM] | Emax [2] [%] | DC50 [3] [nM] | Emax [4] [%] | concentration at 1 h [5] [ng/mL] | concentration at 3 h [6] [ng/mL] | concentration at 6 h [7] [ng/mL] | SMILES
6 | 8 | 88 | 18 | 81 |  |  |  | CC(=O)N1CCc2c(c(N3CCCc4cc(-c5cnn(C)c5)c(C(F)F)cc43)nn2C2CCN(C(=O)CCNc3cccc4c3C(=O)N(C3CCC(=O)NC3=O)C4=O)CC2)C1 (centres undefined)
7 | 0.9 | > 95 | 0.4 | > 95 | 5.1 | 3.2 | 2 | CC(=O)N1CCc2c(c(N3CCCc4cc(-c5cnn(C)c5)c(C(F)F)cc43)nn2C2CCN(C(=O)CCNc3ccc4c(c3)C(=O)N(C3CCC(=O)NC3=O)C4=O)CC2)C1 (centres undefined)
8 | 0.4 | 115 | 0.2 | > 95 |  |  |  | CC(=O)N1CCc2c(c(N3CCCc4cc(-c5cnn(C)c5)c(C(F)F)cc43)nn2C2CCN(C(=O)CCCCCNc3cccc4c3C(=O)N(C3CCC(=O)NC3=O)C4=O)CC2)C1 (centres undefined)
9 | 0.4 | > 95 | 0.4 | > 95 |  |  |  | CC(=O)N1CCc2c(c(N3CCCc4cc(-c5cnn(C)c5)c(C(F)F)cc43)nn2C2CCN(C(=O)CCCCNc3ccc4c(c3)C(=O)N(C3CCC(=O)NC3=O)C4=O)CC2)C1 (centres undefined)
10 | > 1000 | < 50 | > 1000 | < 50 |  |  |  | CC(=O)N1CCc2c(c(N3CCCc4cc(-c5cnn(C)c5)c(C(F)F)cc43)nn2C2CCN(C(=O)Nc3cccc4c3C(=O)N(C3CCC(=O)NC3=O)C4=O)CC2)C1 (centres undefined)
11 | > 1000 | < 50 | > 1000 | < 50 |  |  |  | CC(=O)N1CCc2c(c(N3CCCc4cc(-c5cnn(C)c5)c(C(F)F)cc43)nn2C2CCN(C(=O)c3cccc4c3C(=O)N(C3CCC(=O)NC3=O)C4=O)CC2)C1 (centres undefined)
12 | 1.4 | 92 | 1.2 | 93 |  |  |  | CC(=O)N1CCc2c(c(N3CCCc4cc(-c5cnn(C)c5)c(C(F)F)cc43)nn2C2CCN(C(=O)CCCNc3cccc4c3C(=O)N(C3CCC(=O)NC3=O)C4=O)CC2)C1 (centres undefined)
13 | > 1000 | < 50 | > 1000 | < 50 |  |  |  | CC(=O)N1CCc2c(c(N3CCCc4cc(-c5cnn(C)c5)c(C(F)F)cc43)nn2C2CCN(C(=O)c3ccc4c(c3)C(=O)N(C3CCC(=O)NC3=O)C4=O)CC2)C1 (centres undefined)
